Measurements published in PubChem BioAssay AID1259407 (Chemical Carcinogenesis Research Information System (CCRIS), 2018).
Active and inactive are the calls of the source. How the calls were made is not given here.

Test system: CCRIS mutagenicity, Ames/micronucleus/aberration tests
Assay: CCRIS mutagenicity studies
[1] = Test System: AMES SALMONELLA TYPHIMURIUM, Strain/Indicator: TA98, Metabolic Activation: NONE, Method: PREINCUBATION
[2] = Test System: AMES SALMONELLA TYPHIMURIUM, Strain/Indicator: TA100, Metabolic Activation: NONE, Method: PREINCUBATION
[3] = Test System: AMES SALMONELLA TYPHIMURIUM, Strain/Indicator: TA100, Metabolic Activation: NONE, Method: STANDARD PLATE
[4] = Test System: AMES SALMONELLA TYPHIMURIUM, Strain/Indicator: TA1535, Metabolic Activation: NONE, Method: PREINCUBATION
[5] = Test System: AMES SALMONELLA TYPHIMURIUM, Strain/Indicator: TA1537, Metabolic Activation: NONE, Method: PREINCUBATION

## CCN(N=O)C(N)=O
End Point: IN VITRO CHROMOSOMAL ABERRATIONS, Test System: CHINESE HAMSTER V79-E CELLS, Metabolic Activation: NONE
  mutagenic call: inactive; negative
End Point: IN VITRO MICRONUCLEUS, Test System: CHL/IU CELLS, Metabolic Activation: NONE
  mutagenic call: active; positive
End Point: IN VIVO MICRONUCLEUS, Test System: BLOOD ERYTHROCYTES, Species: MOUSE, Strain/Sex: CD-1/MALE, Route: ORAL
  mutagenic call: active; positive
Test System: AMES SALMONELLA TYPHIMURIUM, Strain/Indicator: TA98, Metabolic Activation: HAMSTER, LIVER, S-9, AROCLOR 1254 (30%), Method: PREINCUBATION
  mutagenic call: active; positive
[1]
  mutagenic call: active; positive
Test System: AMES SALMONELLA TYPHIMURIUM, Strain/Indicator: TA98, Metabolic Activation: RAT, LIVER, S-9, AROCLOR 1254 (30%), Method: PREINCUBATION
  mutagenic call: active; positive
Test System: AMES SALMONELLA TYPHIMURIUM, Strain/Indicator: TA100, Metabolic Activation: HAMSTER, LIVER, S-9, AROCLOR 1254 (30%), Method: PREINCUBATION
  mutagenic call: active; positive
[2]
  mutagenic call: active; positive
[3]
  mutagenic call: active; positive
Test System: AMES SALMONELLA TYPHIMURIUM, Strain/Indicator: TA100, Metabolic Activation: RAT, LIVER, S-9, AROCLOR 1254 (30%), Method: PREINCUBATION
  mutagenic call: active; positive
Test System: AMES SALMONELLA TYPHIMURIUM, Strain/Indicator: TA100, Metabolic Activation: RAT, LIVER, S-9, AROCLOR 1254, Method: PREINCUBATION
  mutagenic call: active; positive
Test System: AMES SALMONELLA TYPHIMURIUM, Strain/Indicator: TA102, Metabolic Activation: RAT, LIVER, S-9, AROCLOR 1254, Method: PREINCUBATION
  mutagenic call: active; positive
Test System: AMES SALMONELLA TYPHIMURIUM, Strain/Indicator: TA104, Metabolic Activation: RAT, LIVER, S-9, AROCLOR 1254, Method: PREINCUBATION
  mutagenic call: active; positive
Test System: AMES SALMONELLA TYPHIMURIUM, Strain/Indicator: TA1535, Metabolic Activation: NONE
  mutagenic call: active; positive
[4]
  mutagenic call: active; positive
Test System: AMES SALMONELLA TYPHIMURIUM, Strain/Indicator: TA1535, Metabolic Activation: RAT, LIVER, S-9, AROCLOR 1254, Method: STANDARD PLATE
  mutagenic call: active; positive
Test System: AMES SALMONELLA TYPHIMURIUM, Strain/Indicator: YG7104, Metabolic Activation: NONE, Method: PREINCUBATION
  mutagenic call: active; positive
Test System: AMES SALMONELLA TYPHIMURIUM, Strain/Indicator: YG7108, Metabolic Activation: NONE, Method: PREINCUBATION
  mutagenic call: active; positive
Test System: AMES SALMONELLA TYPHIMURIUM, Strain/Indicator: YG7112, Metabolic Activation: NONE, Method: PREINCUBATION
  mutagenic call: active; positive
Test System: AMES SALMONELLA TYPHIMURIUM, Strain/Indicator: YG7113, Metabolic Activation: NONE, Method: PREINCUBATION
  mutagenic call: active; positive
Test System: CHINESE HAMSTER OVARY, Strain/Indicator: CHO-K1-BH4 (HGPRT), Metabolic Activation: NONE, Method: STANDARD PLATE
  mutagenic call: active; positive
Test System: CHINESE HAMSTER V-79, Strain/Indicator: V-79/6-THIOGUANINE, Metabolic Activation: NONE, Method: FLASK ASSAY
  mutagenic call: active; positive
Test System: E. COLI B, Strain/Indicator: H/R30R, Metabolic Activation: NONE
  mutagenic call: active; positive
Test System: E. COLI B, Strain/Indicator: HS30R, Metabolic Activation: NONE
  mutagenic call: active; positive
Test System: E. COLI, Strain/Indicator: WP2, Metabolic Activation: NONE, Method: STANDARD PLATE
  mutagenic call: active; positive
Test System: E. COLI, Strain/Indicator: WP2 UVRA, Metabolic Activation: NONE, Method: STANDARD PLATE
  mutagenic call: active; positive
Test System: LacZ plasmid mouse (C57BL/6J transgenic), Strain/Indicator: LacZ Mutant frequency, Method: Bone marrow and liver harvested 35 days after last dose
  mutagenic call: active; positive
Test System: LacZ transgenic mouse (Muta Mouse), Strain/Indicator: LacZ Mutant frequency, Method: Bone marrow and liver harvested 35 days after last dose
  mutagenic call: active; positive
Test System: MOUSE LYMPHOMA, Strain/Indicator: L5178Y(TK+/TK-), Metabolic Activation: NONE, Method: MICROWELL
  mutagenic call: active; positive
Test System: UDS HUMAN FIBROBLASTS, Strain/Indicator: THY INCORP (NON-S-PHASE), Metabolic Activation: NONE, Method: LIQUID SCINTILLATION COUNTING
  mutagenic call: active; positive
Test System: UDS HUMAN TRACHEAL EPITHELIAL CELLS, Strain/Indicator: THY INCORP, Metabolic Activation: NONE, Method: AUTORADIOGRAPHY
  mutagenic call: active; positive
Test System: UDS MOUSE SPERMATOGONIAL AND POSTSPERMATOGONIAL CELLS IN VIVO, Strain/Indicator: THYMIDINE INCORPORATION, Metabolic Activation: NONE, Method: AUTORADIOGRAPHY
  mutagenic call: active; positive

## C[C@H](CCC(=O)O)[C@H]1CC[C@H]2[C@@H]3CC[C@@H]4C[C@H](O)CC[C@]4(C)[C@H]3C[C@@H](O)[C@]12C
Test System: AMES SALMONELLA TYPHIMURIUM, Strain/Indicator: TA98, Metabolic Activation: NONE, Method: FLUCTUATION TEST
  mutagenic call: inactive; negative
[1]
  mutagenic call: inactive; negative
Test System: AMES SALMONELLA TYPHIMURIUM, Strain/Indicator: TA98, Metabolic Activation: RAT, LIVER, S-9, PCB, Method: PREINCUBATION
  mutagenic call: inactive; negative
Test System: AMES SALMONELLA TYPHIMURIUM, Strain/Indicator: TA100, Metabolic Activation: NONE, Method: FLUCTUATION TEST
  mutagenic call: inactive; negative

## Cc1c2ccccc2cc2c3c(ccc12)C(=O)C(=O)C=C3
Test System: AMES SALMONELLA TYPHIMURIUM, Strain/Indicator: TA97A, Metabolic Activation: NONE, Method: PREINCUBATION
  mutagenic call: active; positive
[1]
  mutagenic call: inactive; negative
[2]
  mutagenic call: inactive; negative
Test System: AMES SALMONELLA TYPHIMURIUM, Strain/Indicator: TA102, Metabolic Activation: NONE, Method: PREINCUBATION
  mutagenic call: inactive; negative
Test System: AMES SALMONELLA TYPHIMURIUM, Strain/Indicator: TA104, Metabolic Activation: NONE, Method: PREINCUBATION
  mutagenic call: inactive; negative

## OC/C(Br)=C(\Br)CO
Test System: AMES SALMONELLA TYPHIMURIUM, Strain/Indicator: TA98, Metabolic Activation: HAMSTER, LIVER, S-9, AROCLOR 1254 (10%), Method: PREINCUBATION
  mutagenic call: active; positive
[1]
  mutagenic call: inactive; negative
Test System: AMES SALMONELLA TYPHIMURIUM, Strain/Indicator: TA98, Metabolic Activation: RAT, LIVER, S-9, AROCLOR 1254, Method: PREINCUBATION
  mutagenic call: active; positive
Test System: AMES SALMONELLA TYPHIMURIUM, Strain/Indicator: TA100, Metabolic Activation: HAMSTER, LIVER, S-9, AROCLOR 1254 (10%), Method: PREINCUBATION
  mutagenic call: active; positive
[2]
  mutagenic call: inactive; negative
Test System: AMES SALMONELLA TYPHIMURIUM, Strain/Indicator: TA100, Metabolic Activation: RAT, LIVER, S-9, AROCLOR 1254 (10%), Method: PREINCUBATION
  mutagenic call: active; positive
Test System: AMES SALMONELLA TYPHIMURIUM, Strain/Indicator: TA1535, Metabolic Activation: HAMSTER, LIVER, S-9, AROCLOR 1254 (10%), Method: PREINCUBATION
  mutagenic call: active; positive
[4]
  mutagenic call: inactive; negative
Test System: AMES SALMONELLA TYPHIMURIUM, Strain/Indicator: TA1535, Metabolic Activation: RAT, LIVER, S-9, AROCLOR 1254 (10%), Method: PREINCUBATION
  mutagenic call: active; positive
Test System: AMES SALMONELLA TYPHIMURIUM, Strain/Indicator: TA1537, Metabolic Activation: HAMSTER, LIVER, S-9, AROCLOR 1254 (10%), Method: PREINCUBATION
  mutagenic call: active; positive
[5]
  mutagenic call: inactive; negative
Test System: AMES SALMONELLA TYPHIMURIUM, Strain/Indicator: TA1537, Metabolic Activation: RAT, LIVER, S-9, AROCLOR 1254 (10%), Method: PREINCUBATION
  mutagenic call: inactive; negative

## CC(=O)O[C@H]1[C@@H]2CC(C)(C)CC2=C(C=O)[C@@]2(C=O)C[C@@]12C
Test System: AMES SALMONELLA TYPHIMURIUM, Strain/Indicator: TA98, Metabolic Activation: NONE, Method: STANDARD PLATE
  mutagenic call: inactive; negative
[3]
  mutagenic call: inactive; negative
Test System: AMES SALMONELLA TYPHIMURIUM, Strain/Indicator: TA2637, Metabolic Activation: NONE, Method: STANDARD PLATE
  mutagenic call: inactive; negative
Test System: CHINESE HAMSTER V-79, Strain/Indicator: V-79/6-THIOGUANINE (HGPRT), Metabolic Activation: NONE
  mutagenic call: inactive; negative

## C=CCCCCC1CO1 (stereo not drawn)
[3]
  mutagenic call: inactive; negative
Test System: AMES SALMONELLA TYPHIMURIUM, Strain/Indicator: TA1535, Metabolic Activation: NONE, Method: STANDARD PLATE
  mutagenic call: active; positive

## O=Nc1nc[nH]c1-c1ccccc1
[3]
  mutagenic call: active; positive

## Nc1c2ccccc2nc2ccc(Cl)cc12
[5]
  mutagenic call: active; positive

## O[C@H]1C=Cc2cccnc2[C@@H]1O
[3]
  mutagenic call: inactive; negative
Test System: AMES SALMONELLA TYPHIMURIUM, Strain/Indicator: TA100, Metabolic Activation: RAT, LIVER, S-9, AROCLOR 1254 (10 OR 20%), Method: STANDARD PLATE
  mutagenic call: inactive; negative
